Results taken from patent US20050256034A1, “Dioxolane analogs for improved inter-cellular delivery” (priority 2000, published 2005).
Where two headings read alike, the source gives them in different places.

Assay: 3H-Thymidine Incorporation Assay (24 hr drug, wash, another 48 hr; 72 hr assay)
Assay type: cell-based
Conditions: for Factor (Resistance Factor = Ratio of dCK- on Wild-type CCRF-CEM) / Resistance Factor = Ratio of dCK- on Wild-type CCRF-CEM: ratio of IC50 CEM/dCK- to IC50 CCRF-CEM; for Factor (Resistance Factor = Ratio of dCK- on Wild-type CCRF-CEM): 24 h exposure; for IC50: wash, another 48 hr
[1] = CCRF-CEM, read-out: IC50 (3H-TdR incorporation at 72 hr) CCRF-CEM 24 h, CCRF-CEM T-cell leukemia, 24 hr exposure to drug
[2] = CCRF-CEM, read-out: IC50 (3H-TdR incorporation at 72 hr) CEM/dCK- 24 h, CEM/dCK- (CCRF-CEM deoxycytidine kinase-deficient), 24 hr exposure to drug
[3] = MCF7, read-out: IC50 (3H-TdR incorporation at 72 hr) MCF-7 24 h, MCF-7 human breast carcinoma, 24 hr exposure to drug
[4] = NCI-H460, read-out: IC50 (3H-TdR incorporation at 72 hr) H-460 24 h, H-460 human lung carcinoma, 24 hr exposure to drug
[5] = SF-268, read-out: IC50 (3H-TdR incorporation at 72 hr) SF-268 24 h, SF-268 human central nervous system tumor, 24 hr exposure to drug

| SMILES | Factor (Resistance Factor = Ratio of dCK- on Wild-type CCRF-CEM) | other results |
| --- | --- | --- |
| Nc1ccn([C@@H]2CO[C@H](COC(=O)C34CC5CC(CC(C5)C3)C4)O2)c(=O)n1 [Compound 110, ADAMANTANE-1-CARBOXYLIC ACID 4-(4-AMINO-2-OXO-2H-PYRI- MIDIN-1-YL)-[1,3]DI- OXOLAN-2-YLMETHYL ESTER] | 3 307 | – |
| CC(C)(C)OC(=O)N(CCCCC(=O)OC[C@H]1OC[C@@H](n2ccc(N)nc2=O)O1)Cc1ccccc1 [Compound 111, 5-(BENZYL-TERT-BUTOXY- CARBONYL-AMINO)-PENTANOIC ACID 4-(4-A- MINO-2-OXO-2H-PYRI- MIDIN-1-YL)-[1,3]DI- OXOLAN-2-YLMETHYL ESTER] | 13000 | – |
| COc1cc2c(cc1OC)C(=O)/C(=C/c1cc(C)c(OC(=O)OC[C@H]3OC[C@@H](n4ccc(N)nc4=O)O3)c(C)c1)C2 [Compound 112, CARBONIC ACID 4(S)-(4′-A- MINO-2′-OXO-2H-PYRI- MIDIN-1′-YL)-[1,3]DI- OXOLAN-2(S)-YL- METHYL ESTER 4-(5″,6″-DI- METHOXY-1″-OXO-IN- DAN-2″-YLIDENE- METHYL)-2,6-DI- METHYL-PHENYL ESTER] | 10 | IC50 (CCRF-CEM, read-out: IC50 in μM (3H-TdR incorporation at 72 hr) CEM/dCK- 24 h, CEM/dCK- (CCRF-CEM deoxycytidine kinase-deficient), 24 h exposure to drug): 0.057 µM |
| COC1(OC[C@H]2OC[C@@H](n3ccc(N)nc3=O)O2)CCCCC1 [Compound 113, 4-AMINO-1-([2-(1-METH- OXY-CYCLO- HEXYLOXYMETHYL)-[1,3]DI- OXOLAN-4-YL]-1H-PYRI- MIDIN-2-ONE] | >1 667 | – |
| CC(C)(C)OC(=O)N(CCCCC(=O)Nc1ccn([C@@H]2CO[C@H](COC(=O)CCCCN(Cc3ccccc3)C(=O)OC(C)(C)C)O2)c(=O)n1)Cc1ccccc1 [Compound 114, 5-(BENZYL-TERT-BUTOXY- CARBONYL-AMINO)-PENTANOIC ACID 4-{4-[5-(BENZYL-TERT-BUTOXY- CARBONYL-AMINO)-PENTANOYL- AMINO]-2-OXO-2H!PYRI- MIDIN-1-YL)-[1,3]DI- OXOLAN-2-YLMETHYL ESTER] | 500 | – |
| CC(C)(C)OC(=O)N(CCCCC(=O)Nc1ccn([C@@H]2CO[C@H](CO)O2)c(=O)n1)Cc1ccccc1 [Compound 115, BENZYL-{4-[1-(2-HYDROXY- METHYL-[1,3]DI- OXOLAN-4-YL)-2-OX- O-1,2-DIHYDRO-PYRI- MIDIN-4-YLCARBA- MOYL]-BUTYL}-CARBAMIC ACID TERT!-BUTYL ESTER] | >500 | – |
| COc1ccc(OC(=O)OC[C@H]2OC[C@@H](n3ccc(N)nc3=O)O2)cc1 [Compound 118, CARBONIC ACID 4-(4-A- MINO-2-OXO-2H-PYRI- MIDIN-1-YL)-[1,3]DI- OXOLAN-2-YLMETHYL ESTER 4-METHOXY-PHENYL ESTER] | >3 571 | – |
| CCCCCCNC(=O)Nc1ccn([C@@H]2CO[C@H](COC(=O)NCCCCCC)O2)c(=O)n1 [Compound 119, HEXYL-CARBAMIC ACID 4-[4-(3-HEX- YL-UREIDO)-2-OX- O-2#H!-PYRIMIDIN-1-YL]-[1,3]DI- OXOLAN-2-YLMETHYL ESTER] | ˜2 | – |
| CCCCCCNC(=O)Nc1ccn([C@@H]2CO[C@H](CO)O2)c(=O)n1 [Compound 120, 1-HEXYL-3-[1-(2-HY- DROXYMETHYL-[1,3]DI- OXOLAN-4-YL)-2-OX- O-1,2-DIHYDRO-PYRI- MIDIN-4-YL]-UREA] | 1 | – |
| CCCCCCNC(=O)OC[C@H]1OC[C@@H](n2ccc(N)nc2=O)O1 [Compound 121, HEXYL-CARBAMIC ACID 4-(4-A- MINO-2-OXO-2H-PYRI- MIDIN-1-YL)-[1,3]DI- OXOLAN-2-YLMETHYL ESTER] | >6 | – |
| CCCCCCOC(=O)OC[C@H]1OC[C@@H](n2ccc(NC(=O)OCc3ccccc3)nc2=O)O1 [Compound 122, CARBONIC ACID 4-(4-BENZYLOXY- CARBONYLAMINO-2-OX- O-2H-PYRIMIDIN-1-YL)-[1,3]DI- OXOLAN-2-YLMETHYL ESTER HEXYL ESTER] | 86 | – |
| COc1ccc(C(OC[C@H]2OC[C@@H](n3ccc(N)nc3=O)O2)(c2ccccc2)c2ccc(OC)cc2)cc1 [Compound 123, 4-AMINO-1-{2-[BIS-(4-METH- OXY-PHENYL)-PHENYL-METH- OXYMETHYL]-[1,3]DI- OXOLAN-4-YL)-1H-PYRI- MIDIN-2-ONE] | 17 | – |
| CC(C)c1ccc(NC(=O)OC[C@H]2OC[C@@H](n3ccc(NC(=O)OCc4ccccc4)nc3=O)O2)cc1 [Compound 124, (1-[2-(4-ISOPROPYL-PHENYL- CARBAMOYLOXYMETHYL)-[1,3]DI- OXOLAN-4-YL]-2-OX- O-1,2-DIHYDRO-PYRI- MIDIN-4-YL}-CARBAMIC ACID BENZYL ESTER] | ˜2 | – |
| CC(C)(C)OC(=O)N(CCCCC(C)(C)C(=O)Nc1ccn([C@@H]2CO[C@H](CO)O2)c(=O)n1)Cc1ccccc1 [Compound 125, Benzyl-{5-[1-(2-hydroxy-methyl-[1,3]di-oxolan-4-yl)-2-ox-o-1,2-dihydro-pyri-midin-4-ylcarba-moyl]-5-methyl-hexyl}-carbamic acid tert-butyl ester] | 97 | – |
| COc1ccc(C(OC[C@H]2OC[C@@H](n3ccc(N)nc3=O)O2)(c2ccccc2)c2ccccc2)cc1 [Compound 134, 4-AMINO-1-{2-[(4-METH- OXY-PHENYL)-DI- PHENYL-METH- OXYMETHYL]-[1,3]DI- OXOLAN-4-YL}-1H-PYRI- MIDIN-2-ONE] | 3 | – |
| O=c1nc(NC2Sc3ccccc3S2)ccn1[C@@H]1CO[C@H](CO)O1 [Compound 136, 4-(BENZO[1,3]DITHIOL-2-YL- AMINO)-1-(2-HYDROXY- METHYL-[1,3]DI- OXOLAN-4-YL)-1H!PYRI- MIDIN-2-ONE] | >25 | – |
| COC(OC)(OC[C@H]1OC[C@@H](n2ccc(N)nc2=O)O1)c1ccccc1 [Compound 139, 4-AMINO-1-[2-(DI- METHOXY-PHENYL-METH- OXYMETHYL)-[1,3]DI- OXOLAN-4-YL]-1H-PYRI- MIDIN-2-ONE] | >250 | – |
| CN(Cc1ccccc1)C(=O)OC[C@H]1OC[C@@H](n2ccc(N)nc2=O)O1 [Compound 140, BENZYL-METHYL-CARBAMIC ACID 4-(4-AMINO-2-OXO-2H-PYRI- MIDIN-1-YL)-[1,3]DI- OXOLAN-2-YLMETHYL ESTER] | >9 | – |
| O=c1nc(NC2(c3ccccc3)c3ccccc3Oc3ccccc32)ccn1[C@@H]1CO[C@H](COC2(c3ccccc3)c3ccccc3Oc3ccccc32)O1 [Compound 144, 4-(9-PHENYL-9#H!-XAN- THEN-9-YLAMINO)-1-[2-(9-PHE- NYL-9#H!-XAN- THEN-9-YLOXYMETHYL)-[1,3]DI- OXOLAN-4-YL]-1#H!-PYRI- MIDIN-2-ONE] | 110 | – |
| Nc1ccn([C@@H]2CO[C@H](COC(=S)Oc3ccccc3)O2)c(=O)n1 [Compound 147, THIOCARBONIC ACID O-[4(S)-(4′-A- MINO-2′-OXO-2H-PYRI- MIDIN-1′-YL)-[1,3]DI- OXOLAN-2(S)-YL- METHYL]ESTER O-PHENYL ESTER] | >4 000 | – |
| CC(=O)OCC1OC2OC(C)(OC[C@H]3OC[C@@H](n4ccc(NC(=O)OCc5ccccc5)nc4=O)O3)OC2C(OC(C)=O)C1OC(C)=O (stereo partly drawn) [Compound 148, Acetic acid 6-acetoxy-5-acetoxy-methyl-2-[4-(4-benzyl-oxycarbonylamino-2-ox-o-2H-pyrimidin-1-yl)-[1,3]di-oxolan-2-ylmeth-oxy]-2-methyl-tetra-hydro-[1,3]di-oxolo[4,5-b]py-ran-7-yl ester] | 4 | – |
| CC(C(=O)OC[C@H]1OC[C@@H](n2ccc(N)nc2=O)O1)C(c1ccccc1)c1ccccc1 (stereo partly drawn) [Compound 157, (2S,4S)-(3″-DIPHENYL-2″-METHYL- PROPIOXYMETHYL)-4-CYTO- SIN-1′-YL-1,3-DI- OXOLANE] | > 8330 | – |
| CCOC(OCC)(OC[C@H]1OC[C@@H](n2ccc(N)nc2=O)O1)c1ccccc1 [Compound 170, 4-AMINO-1-[2-(DIETHOXY-PHE- NYL-METHOXYMETHYL)-[1,3]DI- OXOLAN-4-YL]-1H-PYRI- MIDIN-2-ONE] | – | IC50 [1]: 0.21 µM; IC50 [2]: > 100 µM; IC50 [3]: 0.49 µM; IC50 [4]: 0.63 µM; IC50 [5]: 1 µM; Resistance Factor = Ratio of dCK- on Wild-type CCRF-CEM: >476 |
| COC(OC)(OC)OC[C@H]1OC[C@@H](n2ccc(N)nc2=O)O1 [Compound 177, 4-AMINO-1-(2-TRI- METHOXYMETHOXYMETHYL-[1,3]DI- OXOLAN-4-YL)-1H-PYRI- MIDIN-2-ONE] | – | Resistance Factor = Ratio of dCK- on Wild-type CCRF-CEM: > 1050 |
| O=C(Nc1ccn([C@@H]2CO[C@H](COC(=O)OCc3ccc([N+](=O)[O-])cc3)O2)c(=O)n1)OCc1ccc([N+](=O)[O-])cc1 [Compound 181, CARBONIC ACID 4-NITRO-BENZYL ESTER 4-[4-(4-NITRO-BENZYL- OXYCARBONYLAMINO)-2-OX- O-2H-PYRIMIDIN-1-YL]-[1,3]DI- OXOLAN-2-YLMETHYL ESTER] | – | IC50 [1]: 0.037 µM; IC50 [2]: > 100 µM; IC50 [3]: 0.49 µM; IC50 [4]: 0.14 µM; IC50 [5]: 0.17 µM; Resistance Factor = Ratio of dCK- on Wild-type CCRF-CEM: >2700 |
